Laboratory results reported in US7923461B2, “TNF-α production inhibitors” (Santen Pharmaceutical Co., Ltd., priority 2000, dated 2011).
Where a name gives a salt, the structure may show the parent alone.

What was measured:
TNF-α production = test: Inhibitory effects on TNF-α production induced by lipopolysaccharide (LPS) stimulation, in vivo test; design: species or system rat; settings: female rats, plasma TNF-α (ELISA) two hours after LPS; for inhibition in vivo at 10 mg/kg / inhibition in vivo at 3 mg/kg: Rattus norvegicus, 2 h, read-out: Inhibition rate (%) of TNF-α production; for inhibition in vivo at 10 mg/kg: oral administration of 10 mg/kg immediately after LPS to footpad; for Inhibition rate (%) of TNF-α production / inhibition in vivo at 3 mg/kg: oral administration of 3 mg/kg immediately after LPS to footpad
Method: Inhibitory effects on TNF-α production induced by lipopolysaccharide (LPS) stimulation were studied by in vivo tests according to the method of Tsuji et al. (Inflamm res. 46 (1997) 193-198).
Female rats (five per group), body weight of about 200 g, about eight weeks old, were used as test animals. LPS from Salmonella was dissolved in physiological saline to prepare an LPS solution (1 mg/ml). Each test substance was dissolved or uniformly suspended in a 1% methylcellulose solution to give test substance-preparation liquids.
The above-mentioned LPS solution (0.5 ml/kg) was administered to a footpad of the rat. Immediately after the LPS administration, the test substance-preparation liquid (containing 10 mg/kg or 3 mg/kg test substance) was orally administered. Two hours after the LPS administration, blood was collected from abdominal aorta and was centrifuged at 4° C. and 3000 rpm for ten minutes. TNF-α levels in the obtained plasma were measured with a rat TNF-α-specific ELISA kit. TNF-α was not observed in the plasma with respect to an LPS-non-administered group (control).
Inhibition rates of TNF-α production of the test substances were determined by the following equation. Inhibition rate (%)=[(A−B)/A]×100 A: TNF-α level in plasma of test substance-nonadministered group B: TNF-α level in plasma of test substance-administered group (Results)

SMILES | inhibition in vivo at 10 mg/kg (TNF-α production) [%] | inhibition in vivo at 3 mg/kg (TNF-α production) [%] | further results
CC(CNC(=O)N(CCN(C)C(=O)OC(C)(C)C)CCC12CC3CC(CC(C3)C1)C2)Cc1ccncc1 (single isomer, unassigned; (+)) [Compound No. 1-139, (+)-1-[2-(1-Adamantyl)ethyl]-1-[2-[N-(t-butoxycarbonyl)-N-methylamino]ethyl]-3-[2-methyl-3-(4-pyridyl)propyl]urea] | 94.1 | – | melting point: 122.7 to 123.7 °C
COCCN(CCC12CC3CC(CC(C3)C1)C2)C(=O)NCCCc1ccncc1 [Compound No. 1-18, 1-[2-(1-Adamantyl)ethyl]-1-(2-methoxyethyl)-3-[3-(4-pyridyl)propyl]urea] | 78.9 | – | melting point: 101.5 to 104.5 °C
O=C(NCCCc1ccncc1)N(CCC12CC3CC(CC(C3)C1)C2)CC1CC1 [Compound No. 1-22, 1-[2-(1-Adamantyl)ethyl]-1-cyclopropylmethyl-3-[3-(4-pyridyl)propyl]urea] | 87 | – | melting point: 123 to 125 °C
O=C(NCCCc1ccncc1)N(CCC(F)(F)F)CCC12CC3CC(CC(C3)C1)C2 [Compound No. 1-24, 1-[2-(1-Adamantyl)ethyl]-3-[3-(4-pyridyl)propyl]-1-(3,3,33-trifluoropropyl)urea] | 95.8 | – | melting point: 107.5 to 109 °C
CC=CCN(CCC12CC3CC(CC(C3)C1)C2)C(=O)NCCCc1ccncc1 [Compound No. 1-25, 1-[2-(1-Adamantyl)ethyl]1-(2-butenyl)-3-[3-(4-pyridyl)propyl]urea] | 89 | – | melting point: 89.5 to 93.5 °C
O=C(NCCCc1ccncc1)N(CCC12CC3CC(CC(C3)C1)C2)Cc1cccs1 [Compound No. 1-27, 1-[2-(1-Adamantyl)ethyl]-3-[3-(4-pyridyl)propyl]-1-(2-thienyl)methylurea] | 81.3 | – | melting point: 142.5 to 144.5 °C
CC(C)=CCN(CCC12CC3CC(CC(C3)C1)C2)C(=O)NCCCc1ccncc1 [Compound No. 1-31, 1-[2-(1-Adamantyl)ethyl]-1-(3-methyl-2-butenyl)-3-[3-(4-pyridyl)propyl]urea] | 92.6 | – | melting point: 93 to 96 °C
CCCCCCCCCCN(CCC12CC3CC(CC(C3)C1)C2)C(=O)NCCCc1ccncc1 [Compound No. 1-32, 1-[2-(1-Adamantyl)ethyl]-1-decyl-3-[3-(4-pyridyl)propyl]urea] | 62.4 | – | melting point: 75 to 76 °C
CCCCCN(CC12CC3CC(CC(C3)C1)C2)C(=O)CCCCc1ccncc1 [Compound No. 2-3, 5-(4-Pyridyl)valeric acid N-(1-adamantyl)methyl-N-pentylamide] | 51.8 | – | –
CN(CCN(CCC12CC3CC(CC(C3)C1)C2)C(=O)CCCCc1ccncc1)C(=O)OC(C)(C)C [Compound No. 2-7, 5-(4-Pyridyl)valeric acid N-[2-(1-adamantyl)ethyl]-N-[2-[N-(tbutoxycarbonyl)-N′-methylamino]ethyl]amide] | – | – | Inhibition rate (%) of TNF-α production (TNF-α production): 78.7%
CCCCCN(CCc1ccccc1)C(=O)CCCCc1ccncc1 [Compound No. 2-9, 5-(4-Pyridyl)valeric acid N-pentyl-N-phenethylamide] | – | 84.5 | –
CCCCCN(CCC1CCCCC1)C(=O)CCCCc1ccncc1 [Compound No. 2-11, 5-(4-Pyridyl)valeric acid N-(2-cyclohexylethyl)-NY-pentylamide] | – | – | Inhibition rate (%) of TNF-α production (TNF-α production): 53.5%
CCCCCN(CCC12CC3CC(CC(C3)C1)C2)C(=O)CCCCc1ccncc1 [Compound No. 2-14, 5-(4-Pyridyl)valeric acid N-[2-(1-adamantyl)ethyl]-N-pentylamide] | – | 87.3 | –
CCCCCN(CCC12CC3CC(CC(C3)C1)C2)C(=O)CCSCc1ccncc1 [Compound No. 2-15, 3-(4-Pyridylmethylthio)propionic acid N-[2-(1-adamantyl)ethyl]-N-pentylamide] | – | 68.1 | –
CCCCCN(CCC12CC3CC(CC(C3)C1)C2)C(=O)CSCCc1ccncc1 [Compound No. 2-18, 2-[2-(4-Pyridyl)ethylthio]acetic acid N-[2-(1-adamantyl)ethyl]-N-pentylamide] | – | 87.3 | –
CCCCCN(CCC12CC3CC(CC(C3)C1)C2)C(=O)CCCCCc1ccncc1 [Compound No. 2-20, 6-(4-Pyridyl)caproic acid N-[2-(1-adamantyl)ethyl]-N-pentylamide] | – | 82.1 | –
CCCCCN(CCC12CC3CC(CC(C3)C1)C2)C(=O)C(N)CSCc1ccncc1 (centres unmarked) [Compound No. 3-4, 2-Amino-3-(4-pyridylmethylthio)propionic acid N-[2-(1-adamantyl)ethyl]-N-pentylamide dihydrochloride] | – | 76.1 | –

SMILES | inhibition in vivo at 10 mg/kg (TNF-α production) [%] | inhibition in vivo at 3 mg/kg (TNF-α production) [%] | further results
CCCCCN(CCC12CC3CC(CC(C3)C1)C2)C(=O)NCCCc1cc[n+](C)cc1 [Compound No. 4-1, 4-[3-[3-[2-(1-Adamantyl)ethyl]-3-pentylureido]propyl]-1-methylpyridinium iodide] | – | 42.8 | –
CCCN(CCCC12CC3CC(CC(C3)C1)C2)C(=O)OCCCc1ccncc1 [Compound No. 5-3, 3-(4-Pyridyl)propyl N [3-(1-adamantyl)propyl]-N-propylcarbamate] | – | – | Inhibition rate (%) of TNF-α production (TNF-α production): 49.4%
O=C(OCCCc1ccncc1)N(CCC(F)(F)F)CCC12CC3CC(CC(C3)C1)C2 [Compound No. 5-4, 3-(4-Pyridyl)propyl N-[2-(1-adamantyl)ethyl]-N-(3,3,3-trifluoropropyl)carbamate] | – | 62.6 | –
CN(CCN(CCC12CC3CC(CC(C3)C1)C2)C(=O)OCCCc1ccncc1)C(=O)OC(C)(C)C [Compound No. 5-5, 3-(4-Pyridyl)propyl N-[2-(1-adamantyl)ethyl]-N-[2-[N′-(tbutoxycarbonyl)-N′-methylamino]ethyl]carbamate] | – | – | Inhibition rate (%) of TNF-α production (TNF-α production): 42.8%
CCCCCN(CCC12CC3CC(CC(C3)C1)C2)C(=O)OCC(C)Cc1ccncc1 (centres unmarked) [Compound No. 5-6, 2-Methyl-3-(4-pyridyl)propyl N-[2-(1-adamantyl)ethyl]-N-pentylcarbamate] | – | 41.7 | –
O=C1CCN(CCC23CC4CC(CC(C4)C2)C3)C(=O)N1CCCc1ccncc1 [Compound No. 6-1, 1-[2-(1-Adamantyl)ethyl]-3-[3-(4-pyridyl)propyl]hexahydro-2,4-pyrimidinedione hydrochloride] | 50.5 | – | –
CCCCCN(CCC12CC3CC(CC(C3)C1)C2)C(=S)NCCCc1ccncc1 [Compound No. 7-1, 1-[2-(1-Adamantyl)ethyl]-1-pentyl-3-[3-(4-pyridyl)propyl]thiourea] | 71.5 | – | –
CN(CCN(CCC12CC3CC(CC(C3)C1)C2)C(=O)CCCCc1ccncc1)C(=O)OCc1ccccc1 [Compound No. 10-16, 5-(4-Pyridyl)valeric acid N-[2-(1-adamantyl)ethyl]-N-[2-(N′-benzyloxycarbonyl-N′-methylamino)ethyl]amide] | – | – | Inhibition rate (%) of TNF-α production (TNF-α production): 62.8%
CN(CCN(CCC12CC3CC(CC(C3)C1)C2)C(=O)CCCCc1ccncc1)C(=O)CC(C)(C)C [Compound No. 10-17, 5-(4-Pyridyl)valeric acid N-[2-(1-adamantyl)ethyl]-N-[2-[N′-(3,3-dimethylbutyryl)-N′-methylamino]ethyl]amide] | – | – | Inhibition rate (%) of TNF-α production (TNF-α production): 53.8%
CN(CCCc1ccncc1)C(=O)N(C)CCC12CC3CC(CC(C3)C1)C2 [Compound No. 11-1, [2-(1-Adamantyl)ethyl]-1,3-dimethyl-3-[3-(4-pyridyl)propyl]urea] | 50.8 | – | –
CCCCCN(CCC12CC3CC(CC(C3)C1)C2)C(=O)NCCC(O)c1ccncc1 (centres unmarked) [Compound No. 14-1, 1-[2-(1-Adamantyl)ethyl]-3-[3-hydroxy-3-(4-pyridyl)propyl]-1-pentylurea] | – | 36.3 | –
CCCCCN(CCC12CC3CC(CC(C3)C1)C2)C(=O)NCCCc1cc[n+]([O-])cc1 [Compound No. 16-1, 4-[3-[3-[2-(1-Adamantyl)ethyl]-3-pentylureido]propyl]pyridine N-oxide] | – | 74.3 | –
CCCCCN(CCC12CC3CC(CC(C3)C1)C2)C(=O)CNCCc1ccncc1 [Compound No. 18-1, 2-[2-(4-Pyridyl)ethylamino]acetic acid N-[2-(1-adamantyl)ethyl]1-N-pentylamide] | – | – | Inhibition rate (%) of TNF-α production (TNF-α production): 55.7%
CCCCCN(CCC12CC3CC(CC(C3)C1)C2)C(=O)COCCc1ccncc1 [Compound No. 18-3, 2-[2-(4-Pyridyl)ethoxy]acetic acid N-[2-(1-adamantyl)ethyl]-N-pentylamide] | – | 56.6 | –
CCCCCN(CCC12CC3CC(CC(C3)C1)C2)C(=O)NCCCc1ccnc(C)c1 [Compound No. 27-1, 1-[2-(1-Adamantyl)ethyl]-3-[3-[4-(2-methyl)pyridyl]propyl]-1-pentylurea] | – | – | Inhibition rate (%) of TNF-α production (TNF-α production): 68.6%
CCCCCN(CCC12CC3CC(CC(C3)C1)C2)C(=O)NCCC(=O)c1ccncc1 [Compound No. 31-1, 1-[2-(1-Adamantyl)ethyl]-3-[3-oxo-3-(4-pyridyl)propyl]-1-pentylurea] | – | 46.8 | –
